Results: ChEMBL document CHEMBL2057062, “Synthesis and biological evaluation of 4-phenylquinazoline-2-carboxamides designed as a novel class of potent ligands of the translocator protein” (J Med Chem, 2012)
The source made the active and inactive calls. No cut-off for these calls is given here.

Assays:
[1] = system: C6; assay: Increase in pregnenolone production in rat C6 glioma cells at 40 uM after 2 hrs by ELISA; format: functional, cell-based
[2] = system: U-87MG ATCC; assay: Antiproliferative activity against human U87MG cells assessed as cell viability at 100 uM after 24 hrs by MTS assay; format: functional, cell-based
[3] = species: Rattus norvegicus; assay: Displacement of [3H]flumazenil from central benzodiazepine receptor in rat cerebral cortex membranes at 10 uM after 90 mins by competitive binding assay; format: cell membranes; conditions: Membrane
[4] = biological target: Translocator protein (Rattus norvegicus, UniProt P16257); assay: Displacement of [3H]PK11195 from TSPO in rat kidney mitochondrial membranes by competitive binding assay; format: cell membranes, Membrane
[5] = biological target: Translocator protein (Rattus norvegicus) (UniProt P16257); assay: Displacement of [3H]PK11195 from TSPO in rat kidney mitochondrial membranes at 1 uM by competitive binding assay; format: cell membranes; conditions: Membrane

Row | SMILES | Activity [1] | Activity [2] | inhibition [3] [%] | Ki [4] [nM] | inhibition [5] [%]
1 | CCC(C)N(C)C(=O)c1nc(-c2ccccc2Cl)c2ccccc2n1 (configuration not stated) | Active | Active | 0 | 3.06 | –
2 | CCC(C)N(C)C(=O)c1cc2ccccc2c(-c2ccccc2Cl)n1 (configuration not stated) | Active | Active | 0 | – | –
3 | O=C(c1nc(-c2ccc(Cl)cc2)c2cc(Cl)ccc2n1)N1CCCCC1 | – | – | 0 | – | 76
4 | CCCCCCN(CCCCCC)C(=O)c1nc(-c2ccccc2)c2ccccc2n1 | inactive | Active | 0 | 0.69 | –
5 | CCC(C)NC(=O)c1nc(-c2ccccc2)c2ccccc2n1 (configuration not stated) | – | – | 0 | – | 0
6 | CC(C)CN(C)C(=O)c1nc(-c2ccccc2)c2cc(Cl)ccc2n1 | – | – | 0 | 842 | –
7 | CCC(C)NC(=O)c1nc(-c2ccc(Cl)cc2)c2cc(Cl)ccc2n1 (configuration not stated) | – | – | 0 | – | 49
8 | CC(C)CN(C)C(=O)c1nc(-c2ccc(Cl)cc2)c2ccccc2n1 | – | – | 0 | 20.7 | –
9 | CC(C)CN(C)C(=O)c1nc(-c2ccccc2Cl)c2cc(Cl)ccc2n1 | – | – | 0 | – | 77
10 | O=C(c1nc(-c2ccccc2)c2ccccc2n1)N1CCCCC1 | – | – | 0 | – | 61
11 | CCCCCCN(CCCCCC)C(=O)c1nc(-c2ccccc2Cl)c2ccccc2n1 | – | – | 0 | 65.1 | –
12 | O=C(c1nc(-c2ccc(Cl)cc2)c2ccccc2n1)N1CCCC1 | – | – | 0 | 644 | –
13 | CC[C@@H](C)N(C)C(=O)c1nc(-c2ccccc2Cl)c2ccccc2n1 | – | – | 0 | 1.55 | –
14 | O=C(c1nc(-c2ccc(Cl)cc2)c2cc(Cl)ccc2n1)N1CCCC1 | – | – | 0 | – | 64
15 | CCC(C)NC(=O)c1nc(-c2ccccc2Cl)c2ccccc2n1 (configuration not stated) | – | – | 0 | – | 63
16 | CCCN(CCC)C(=O)Cc1c(-c2ccc(Cl)cc2)nc2ccc(Cl)cn12 | – | – | 0 | – | –

Row | SMILES | Activity [1] | Activity [2] | inhibition [3] [%] | Ki [4] [nM] | inhibition [5] [%]
17 | CC(C)N(C)C(=O)c1nc(-c2ccccc2)c2cc(Cl)ccc2n1 | – | – | 0 | – | 0
18 | O=C(c1nc(-c2ccccc2)c2ccccc2n1)N1CCCCCC1 | – | – | 0 | – | 79
19 | O=C(c1nc(-c2ccccc2Cl)c2cc(Cl)ccc2n1)N1CCCCCC1 | – | – | 0 | 415 | –
20 | CCC(C)N(C)C(=O)c1nc(-c2ccccc2Cl)c2cc(Cl)ccc2n1 (configuration not stated) | – | – | 0 | – | 43
21 | CCCCN(CCCC)C(=O)c1nc(-c2ccccc2)c2ccccc2n1 | Active | – | 0 | 3.3 | –
22 | O=C(c1nc(-c2ccccc2)c2ccccc2n1)N1CCCC1 | – | – | 0 | – | 36
23 | CCOC(=O)c1ncn2c1CN(C)C(=O)c1cc(F)ccc1-2 | – | – | 0 | – | –
24 | CCCCCN(CCCCC)C(=O)c1nc(-c2ccccc2)c2ccccc2n1 | – | – | 0 | – | –
25 | CCC(C)NC(=O)c1nc(-c2ccccc2)c2cc(Cl)ccc2n1 (configuration not stated) | – | – | 0 | – | 0
26 | CCC(C)N(C)C(=O)c1nc(-c2ccc(Cl)cc2)c2cc(Cl)ccc2n1 (configuration not stated) | – | – | 0 | 179 | –
27 | O=C(c1nc(-c2ccccc2)c2cc(Cl)ccc2n1)N1CCCCCC1 | – | – | 0 | – | 38
28 | O=C(c1nc(-c2ccc(Cl)cc2)c2ccccc2n1)N1CCCCC1 | – | – | 0 | 493 | –
29 | O=C(c1nc(-c2ccc(Cl)cc2)c2ccccc2n1)N1CCCCCC1 | – | – | 0 | 84.3 | –
30 | CCCCCCN(CCCCCC)C(=O)c1nc(-c2ccccc2)c2cc(Cl)ccc2n1 | – | – | 0 | 38.5 | –
31 | CC(C)N(C)C(=O)c1nc(-c2ccccc2Cl)c2cc(Cl)ccc2n1 | – | – | 0 | – | 0
32 | CCC(C)N(C)C(=O)c1nc(-c2ccccc2)c2ccccc2n1 (configuration not stated) | – | – | 0 | 3 | –
